In patent US20110301217A1, “Selective Glycosidase Inhibitors and Uses Thereof” (priority 2008, published 2011):

Molecular target: T1, O-GlcNAcase (Homo sapiens, UniProt O60502)
T1 sequence (O60502 1-916): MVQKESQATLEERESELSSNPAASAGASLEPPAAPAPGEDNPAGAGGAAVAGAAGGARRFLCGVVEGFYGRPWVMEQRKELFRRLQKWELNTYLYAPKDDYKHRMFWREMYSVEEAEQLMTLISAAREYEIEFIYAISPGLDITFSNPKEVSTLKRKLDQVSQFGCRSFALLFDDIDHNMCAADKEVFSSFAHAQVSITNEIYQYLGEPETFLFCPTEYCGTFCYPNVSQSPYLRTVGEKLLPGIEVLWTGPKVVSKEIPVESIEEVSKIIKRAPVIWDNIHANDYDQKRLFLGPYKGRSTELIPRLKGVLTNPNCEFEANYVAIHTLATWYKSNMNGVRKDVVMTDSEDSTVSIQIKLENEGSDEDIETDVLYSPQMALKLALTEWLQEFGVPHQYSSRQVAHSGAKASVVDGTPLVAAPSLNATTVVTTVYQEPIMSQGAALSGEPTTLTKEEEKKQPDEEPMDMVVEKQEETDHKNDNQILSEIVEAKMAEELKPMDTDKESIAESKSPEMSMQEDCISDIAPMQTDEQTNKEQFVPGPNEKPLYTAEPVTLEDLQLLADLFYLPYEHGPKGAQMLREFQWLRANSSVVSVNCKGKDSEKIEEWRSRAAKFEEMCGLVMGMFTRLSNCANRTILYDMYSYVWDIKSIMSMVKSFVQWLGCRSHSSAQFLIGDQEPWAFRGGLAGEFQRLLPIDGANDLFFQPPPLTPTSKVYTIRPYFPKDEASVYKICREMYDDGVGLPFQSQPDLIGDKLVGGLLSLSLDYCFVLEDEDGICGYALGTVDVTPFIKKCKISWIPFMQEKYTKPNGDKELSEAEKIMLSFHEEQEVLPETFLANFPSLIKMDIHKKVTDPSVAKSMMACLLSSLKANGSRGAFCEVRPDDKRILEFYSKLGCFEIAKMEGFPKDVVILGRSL
Experiment: Assay for determination of KI values for inhibition of O-GlcNAcase activity (pNP-GlcNAc substrate)
Assay type: biochemical
Conditions: PBS pH 7.4, 0.5 mM pNP-GlcNAc, 37° C., Dixon plots
Procedure: Assay for Determination of KI Values for Inhibition of O-GlcNAcase Activity
Experimental procedure for kinetic analyses: Enzymatic reactions are carried out in PBS buffer (pH 7.4) using pNP-GlcNAc as a substrate (0.5 mM) and monitored continuously at 37° C. at 400 nm using a Cary 3E UV-VIS spectrophotometer equipped with a Peltier temperature controller. Reactions are pre-heated in a 500 μL quartz cuvette for approximately 5 minutes followed by addition of 10 μL enzyme via syringe (final enzyme concentration 0.002 mg/mL). Reaction velocities are determined by linear regression of the linear region of the reaction progress curve between the first and third minutes. An inhibitor concentration range of 1/5 to 5 times KI is used in each case.
All KI values are determined using linear regression of Dixon plots.

**Q.** `CC(=O)NC[C@H]1N[C@H](CO)[C@@H](O)[C@@H]1O` [Compound 2, N-(((2R,3R,4R,5R)-3,4-dihydroxy-5-(hydroxymethyl)pyrrolidin-2-yl)methyl)acetamide] was tested. Which Ki did it give?
**A.** 850 nM
